Results reported in patent US11654198B2, “Application of combination of polyethylene glycol and local anesthetic in non-narcotic analgesia” (JENKEM TECHNOLOGY CO., LTD. (TIANJIN), priority 2016, dated 2023).

Key:
[1] = tested on: SD rats; assay: Motor block four-level score (Example 30); format: in vivo, rat; details: for motor function score: direct injection around sciatic nerve, conjugate 10/11/12 at 32/24/48 mg/kg (as bupivacaine)
Protocol: Male Sprague-Dawley rats are used in the study, about 230-250 g when accepted, and acclimated for at least 7 days prior to the experiment. Two rats are raised in each cage and fed freely with feed and water. The environmental conditions of the breeding room are 23±2° C., and the relative humidity is 40% to 70%, alternating 12 hours of light and dark. […] The qualified rats are randomly divided into 4 groups, 4 rats in each group, which are labeled as groups G1, G2, G3, and G4, respectively. Administration by direct injection in the sciatic nerve is adopted, and with the rat's back facing up, the drug is injected around the right sciatic nerve trunk between the right hip and the right thigh.
Motor block (four-level score): The exercise condition of each group of rats is evaluated by the motor block four-level scoring method. The scoring criteria are: paws can be dorsiflexed, stretched, valgus and other normal exercises, scored by 1 point; paws can be dorsiflexed, bendable or after the adduction, although the paws can be stretched after the adduction, the stretching ability is weakened, scored by 2 points; the paw can perform dorsiflexion, but no longer has the ability to stretch, scored by 3 points; the paws completely lose the ability of dorsiflexion, curling and stretching, and the rats produce a gait defect, scored by 4 points. The time point for measuring the motor block score is before administration, and 0.5 h, 1 h, 2 h, 4 h, 6 h, 8 h, 12 h, and 24 h after administration.

[2] = tested on: SD rats; assay: Motor block four-level score, rat sciatica model (SNL) (Example 32); format: in vivo; parameters: key to motor function score: 1 = normal paw movement to 4 = complete loss, gait defect; details: for motor function score: bupivacaine 8, conjugate 10/11/12 32/24/48 mg/kg
Description: Intervertebral disc compression (SNL): This model is a pathological form that simulates clinical disc herniation. The specific method is to remove the autogenous caudal intervertebral disc tissue (annulus fibrosus and nucleus pulposus) form the rats and place the caudal intervertebral disc tissue between the proximal nerve root of the L5 dorsal root ganglion and the lower vertebral body to directly compress the L5 nerve root, wherein damage to the L5 nerve root or dorsal root ganglion should be avoided during the operation. 3 to 15 days after the model is successful, rats develop significant hyperalgesia, so the administration time we chose is between 3 days and 15 days.
Qualified rats are randomly divided into 5 groups, 6 rats in each group, which are labeled as groups G1, G2, G3, G4 and G5, respectively. Administration by intramuscular injection around sciatic nerve is adopted, and the grouping information of the experimental animals is shown in Table 11.
Motor block (four-level score): The exercise condition of each group of rats is evaluated by the motor block four-level scoring method. The scoring criteria are: paws can be dorsiflexed, stretched, valgus and other normal exercises, scored by 1 point; paws can be dorsiflexed, bendable or after the adduction, although the paws can be stretched, the stretching ability is weakened, scored by 2 points; the paw can perform dorsiflexion, but no longer has the ability to stretch, scored by 3 points; the paw completely loses the ability of dorsiflexion, curling and stretching, and the rats produce a gait defect, scored by 4 points. The time point for determining the withdrawal time of the hot plate is before administration, and 0.5 h, 1 h, 2 h, 4 h, 6 h, 8 h, 12 h, and 24 h after administration.

[3] = tested on: SD rats; assay: Motor block four-level score, bupivacaine dose test (Example 28); format: in vivo, rat; parameters: key to motor function score: 1 = normal movement, 4 = complete loss of paw function
Description: 1.3 Test substance: bupivacaine injection, diluted with physiological saline to the target concentration; the reference substance is physiological saline.
After the animals are anesthetized by intraperitoneal injection of 10% chloral hydrate solution, the sciatic nerve is exposed to the biceps and gluteus maximus joints of the hind limbs through surgery, and silicone flexible catheters of the same length (7 cm) are placed around the sciatic nerve. the other ends of the catheters are subcutaneously embedded in the back of the rat, and then sutured and fixed, and 0.2 mL of an antibiotic solution (5,000 U/ml penicillin G) is injected for anti-inflammatory.
Twenty-four qualified rats (animals with no dyskinesia and pain threshold change after catheterization) are randomly divided into 6 groups, 4 rats in each group, the first group is a control group, the experimental animals are administered with normal saline, and the other groups are administered with different doses of bupivacaine injection. Each group is injected with a corresponding drug through the catheter around the sciatic nerve.
The exercise condition of each group of rats is evaluated by a motor block four-level scoring method. The scoring criteria are: paws can be dorsiflexed, stretched, valgus and other normal exercises, scored by 1 point; paws can be dorsiflexed, bendable or after the adduction, although the paws can be stretched, the stretching ability is weakened, scored by 2 points; the paws can perform dorsiflexion, but no longer has the ability to stretch, scored by 3 points; the paws completely lose the ability of dorsiflexion, curling and stretching, and the rats produce a gait defect, scored by 4 points. The time point for measuring the motor block score is before administration, and 5 min, 10 min, 30 min, 1 h, and 2 h after administration.

## 8-Arm-PEG-Bupivacaine, 20K [bupivacaine conjugate 10]
[1]; 0 h (before administration)
  motor function score: 1 ± 0
[1]; 0.5 h
  motor function score: 1 ± 0
[1]; 1 h
  motor function score: 1.75 ± 0.5
[1]; 2 h
  motor function score: 1.75 ± 0.5
[1]; 4 h
  motor function score: 1.75 ± 0.5
[1]; 6 h
  motor function score: 1.75 ± 0.5
[1]; 8 h
  motor function score: 1.75 ± 0.5
[1]; 12 h
  motor function score: 1 ± 0
[1]; 24 h
  motor function score: 1 ± 0
[1]; conjugate 10 at 32 mg/kg, conjugate 11 at 24 mg/kg
  effect on motor function of SD rats: does not affect the motor function
[1]; direct injection, conjugate 10/11/12 at 32/24/48 mg/kg
  motor scores at different time points versus vehicle group: not significantly different
[2]; 0.5 h
  motor function score: 1 ± 0
[2]; 1 h
  motor function score: 1.75 ± 0.5
[2]; 2 h
  motor function score: 1.75 ± 0.5
[2]; 4 h
  motor function score: 1.75 ± 0.5
[2]; 6 h
  motor function score: 1.75 ± 0.5
[2]; 8 h
  motor function score: 1.75 ± 0.5
[2]; 12 h
  motor function score: 1 ± 0
[2]; 24 h
  motor function score: 1 ± 0
[2]; conjugate 10/11/12 at 32/24/48 mg/kg
  effect on motor function of SD rats: does not affect the motor function

## CCCCN1CCCCC1C(=O)Nc1c(C)cccc1C (stereo not drawn) [bupivacaine]
[3]; 3 mg/kg (0.66 mg/rat) and 1 mg/kg (0.22 mg/rat)
  motor block effect (summary): motor block effect
[3]; 0.3, 0.1, 0.03 mg/kg (ie, 0.066, 0.022, 0.0066 mg/rat)
  motor nerve block effect (summary): no motor nerve block effect is observed
[3]; group 2, 3 mg/kg (0.66 mg/rat) trans-catheter, 0 min (before administration)
  motor function score: 1 ± 0
[3]; group 2, 3 mg/kg (0.66 mg/rat) trans-catheter, 5 min
  motor function score: 1 ± 0
[3]; group 2, 3 mg/kg (0.66 mg/rat) trans-catheter, 10 min
  motor function score: 1.75 ± 0.5
[3]; group 2, 3 mg/kg (0.66 mg/rat) trans-catheter, 30 min
  motor function score: 1.75 ± 0.5
[3]; group 2, 3 mg/kg (0.66 mg/rat) trans-catheter, 60 min
  motor function score: 1.75 ± 0.5
[3]; group 2, 3 mg/kg (0.66 mg/rat) trans-catheter, 120 min
  motor function score: 1 ± 0
[3]; group 3, 1 mg/kg (0.22 mg/rat) trans-catheter, 0 min (before administration)
  motor function score: 1 ± 0
[3]; group 3, 1 mg/kg (0.22 mg/rat) trans-catheter, 5 min
  motor function score: 1.5 ± 0.58
[3]; group 3, 1 mg/kg (0.22 mg/rat) trans-catheter, 10 min
  motor function score: 1.5 ± 0.58
[3]; group 3, 1 mg/kg (0.22 mg/rat) trans-catheter, 30 min
  motor function score: 1.25 ± 0.5
[3]; group 3, 1 mg/kg (0.22 mg/rat) trans-catheter, 60 min
  motor function score: 1 ± 0
[3]; group 3, 1 mg/kg (0.22 mg/rat) trans-catheter, 120 min
  motor function score: 1 ± 0
[3]; group 4, 0.3 mg/kg (0.066 mg/rat) trans-catheter, 0 min (before administration)
  motor function score: 1 ± 0
[3]; group 4, 0.3 mg/kg (0.066 mg/rat) trans-catheter, 5 min
  motor function score: 1 ± 0
[3]; group 4, 0.3 mg/kg (0.066 mg/rat) trans-catheter, 10 min
  motor function score: 1 ± 0
[3]; group 4, 0.3 mg/kg (0.066 mg/rat) trans-catheter, 30 min
  motor function score: 1 ± 0
[3]; group 4, 0.3 mg/kg (0.066 mg/rat) trans-catheter, 60 min
  motor function score: 1 ± 0
[3]; group 4, 0.3 mg/kg (0.066 mg/rat) trans-catheter, 120 min
  motor function score: 1 ± 0
[3]; group 5, 0.1 mg/kg (0.022 mg/rat) trans-catheter, 0 min (before administration)
  motor function score: 1 ± 0
[3]; group 5, 0.1 mg/kg (0.022 mg/rat) trans-catheter, 5 min
  motor function score: 1 ± 0
[3]; group 5, 0.1 mg/kg (0.022 mg/rat) trans-catheter, 10 min
  motor function score: 1 ± 0
[3]; group 5, 0.1 mg/kg (0.022 mg/rat) trans-catheter, 30 min
  motor function score: 1 ± 0
[3]; group 5, 0.1 mg/kg (0.022 mg/rat) trans-catheter, 60 min
  motor function score: 1 ± 0
[3]; group 5, 0.1 mg/kg (0.022 mg/rat) trans-catheter, 120 min
  motor function score: 1 ± 0
[3]; group 6, 0.03 mg/kg (0.0066 mg/rat) trans-catheter, 0 min (before administration)
  motor function score: 1 ± 0
[3]; group 6, 0.03 mg/kg (0.0066 mg/rat) trans-catheter, 5 min
  motor function score: 1 ± 0
[3]; group 6, 0.03 mg/kg (0.0066 mg/rat) trans-catheter, 10 min
  motor function score: 1 ± 0
[3]; group 6, 0.03 mg/kg (0.0066 mg/rat) trans-catheter, 30 min
  motor function score: 1 ± 0
[3]; group 6, 0.03 mg/kg (0.0066 mg/rat) trans-catheter, 60 min
  motor function score: 1 ± 0
[3]; group 6, 0.03 mg/kg (0.0066 mg/rat) trans-catheter, 120 min
  motor function score: 1 ± 0
[2]; 0.5 h
  motor function score: 1 ± 0
[2]; 1 h
  motor function score: 1.75 ± 0.5
[2]; 2 h
  motor function score: 1.75 ± 0.5
[2]; 4 h
  motor function score: 1.75 ± 0.5
[2]; 6 h
  motor function score: 1.75 ± 0.5
[2]; 8 h
  motor function score: 1.75 ± 0.5
[2]; 12 h
  motor function score: 1 ± 0
[2]; 24 h
  motor function score: 1 ± 0
